Laboratory results reported in PubChem BioAssay (NCI).
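Following 48 hours of exposure in 96-well plates, responses at five concentrations were used to interpolate endpoints linearly. GI50 marks 50% less growth. TGI is the concentration that stops growth completely.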

Tests used:
Assay in all cases: growth of human tumour cells (NCI), 48 h
HS 578T breast = tested on: HS 578T breast
TK-10 renal = tested on: TK-10 renal
MDA-MB-435 = tested on: MDA-MB-435
OVCAR-4 ovarian = tested on: OVCAR-4 ovarian
SK-MEL-5 melanoma = tested on: SK-MEL-5 melanoma
DU-145 prostate = tested on: DU-145 prostate
PC-3 prostate = tested on: PC-3 prostate
U251 CNS = tested on: U251 CNS
M14 melanoma = tested on: M14 melanoma
SF-295 CNS = tested on: SF-295 CNS
ACHN renal = tested on: ACHN renal
RXF 393 renal = tested on: RXF 393 renal
BT-549 breast = tested on: BT-549 breast
A498 renal = tested on: A498 renal
NCI-H226 lung = tested on: NCI-H226 lung
HOP-62 NSCLC = tested on: HOP-62 NSCLC
786-0 renal = tested on: 786-0 renal
SK-OV-3 ovarian = tested on: SK-OV-3 ovarian
OVCAR-3 ovarian = tested on: OVCAR-3 ovarian
UACC-257 melanoma = tested on: UACC-257 melanoma
SR leukemia = tested on: SR leukemia
SF-539 CNS = tested on: SF-539 CNS
EKVX NSCLC = tested on: EKVX NSCLC
NCI-H460 lung = tested on: NCI-H460 lung
SF-268 CNS = tested on: SF-268 CNS
SW-620 colon = tested on: SW-620 colon
HT29 colon = tested on: HT29 colon
CCRF-CEM leukemia = tested on: CCRF-CEM leukemia
OVCAR-5 ovarian = tested on: OVCAR-5 ovarian
HCT-15 colon = tested on: HCT-15 colon
OVCAR-8 ovarian = tested on: OVCAR-8 ovarian
LOX IMVI melanoma = tested on: LOX IMVI melanoma
HCC-2998 colon = tested on: HCC-2998 colon
HL-60(TB) leukemia = tested on: HL-60(TB) leukemia
KM12 colon = tested on: KM12 colon
MALME-3M melanoma = tested on: MALME-3M melanoma
SN12C renal = tested on: SN12C renal
SK-MEL-2 melanoma = tested on: SK-MEL-2 melanoma
NCI-H23 lung = tested on: NCI-H23 lung
COLO 205 colon = tested on: COLO 205 colon
MOLT-4 leukemia = tested on: MOLT-4 leukemia
NCI/ADR-RES ovarian = tested on: NCI/ADR-RES ovarian
MCF7 breast = tested on: MCF7 breast
UO-31 renal = tested on: UO-31 renal
CAKI-1 renal = tested on: CAKI-1 renal
SNB-75 CNS = tested on: SNB-75 CNS
A549 NSCLC = tested on: A549 NSCLC
NCI-H522 lung = tested on: NCI-H522 lung
UACC-62 melanoma = tested on: UACC-62 melanoma
T-47D breast = tested on: T-47D breast
K-562 leukemia = tested on: K-562 leukemia
IGROV1 ovarian = tested on: IGROV1 ovarian
SK-MEL-28 melanoma = tested on: SK-MEL-28 melanoma
HCT-116 colon = tested on: HCT-116 colon
MDA-MB-231 breast = tested on: MDA-MB-231 breast
SNB-19 CNS = tested on: SNB-19 CNS
RPMI-8226 leukemia = tested on: RPMI-8226 leukemia
HOP-92 NSCLC = tested on: HOP-92 NSCLC

Cc1cc(N2CCCCCC2)nc(NC2CCCC(Nc3ccnc4cc(Cl)ccc34)C2)n1 (stereo not drawn)
GI50 (HS 578T breast): 1.8 µM | TGI (HS 578T breast): 4.42 µM | GI50 (TK-10 renal): 1.99 µM | TGI (TK-10 renal): 3.54 µM | GI50 (MDA-MB-435): 1.63 µM | TGI (MDA-MB-435): 3.08 µM | GI50 (OVCAR-4 ovarian): 1.56 µM | TGI (OVCAR-4 ovarian): 3.25 µM | GI50 (SK-MEL-5 melanoma): 1.67 µM | TGI (SK-MEL-5 melanoma): 3.04 µM | GI50 (DU-145 prostate): 1.61 µM | TGI (DU-145 prostate): 2.99 µM | GI50 (PC-3 prostate): 1.63 µM | TGI (PC-3 prostate): 3.2 µM | GI50 (U251 CNS): 1.47 µM | TGI (U251 CNS): 2.78 µM | GI50 (M14 melanoma): 1.19 µM | TGI (M14 melanoma): 2.74 µM | GI50 (SF-295 CNS): 1.45 µM | TGI (SF-295 CNS): 2.84 µM | GI50 (ACHN renal): 1.54 µM | TGI (ACHN renal): 2.87 µM | GI50 (RXF 393 renal): 1.2 µM | TGI (RXF 393 renal): 2.58 µM | GI50 (BT-549 breast): 1.44 µM | TGI (BT-549 breast): 3.09 µM | GI50 (A498 renal): 1.44 µM | TGI (A498 renal): 2.86 µM | GI50 (NCI-H226 lung): 2.01 µM | TGI (NCI-H226 lung): 3.76 µM | GI50 (HOP-62 NSCLC): 1.63 µM | TGI (HOP-62 NSCLC): 3.15 µM | GI50 (786-0 renal): 1.27 µM | TGI (786-0 renal): 2.6 µM | GI50 (SK-OV-3 ovarian): 1.77 µM | TGI (SK-OV-3 ovarian): 3.23 µM | GI50 (OVCAR-3 ovarian): 1.76 µM | TGI (OVCAR-3 ovarian): 3.39 µM | GI50 (UACC-257 melanoma): 2.17 µM | TGI (UACC-257 melanoma): 3.7 µM

O=C(O)C1(C(=O)O)CC1(C(=O)O)C(=O)O
TGI (HS 578T breast): > 100 µM | TGI (TK-10 renal): > 100 µM | TGI (SR leukemia): > 100 µM | TGI (SF-539 CNS): > 100 µM | TGI (EKVX NSCLC): > 100 µM | TGI (NCI-H460 lung): > 100 µM | TGI (OVCAR-4 ovarian): > 100 µM | TGI (SF-268 CNS): > 100 µM | TGI (SK-MEL-5 melanoma): > 100 µM | TGI (SW-620 colon): > 100 µM | TGI (HT29 colon): > 100 µM | TGI (CCRF-CEM leukemia): > 100 µM | TGI (OVCAR-5 ovarian): > 100 µM | TGI (HCT-15 colon): > 100 µM | TGI (DU-145 prostate): > 100 µM | TGI (OVCAR-8 ovarian): > 100 µM | TGI (LOX IMVI melanoma): > 100 µM | TGI (PC-3 prostate): > 100 µM | TGI (HCC-2998 colon): > 100 µM | TGI (U251 CNS): > 100 µM | TGI (HL-60(TB) leukemia): > 100 µM | TGI (KM12 colon): > 100 µM | TGI (M14 melanoma): > 100 µM | TGI (MALME-3M melanoma): > 100 µM | TGI (SN12C renal): > 100 µM | TGI (SK-MEL-2 melanoma): > 100 µM | TGI (SF-295 CNS): > 100 µM | TGI (NCI-H23 lung): > 100 µM | TGI (COLO 205 colon): > 100 µM | TGI (MOLT-4 leukemia): > 100 µM | TGI (NCI/ADR-RES ovarian): > 100 µM | TGI (ACHN renal): > 100 µM | TGI (RXF 393 renal): > 100 µM | TGI (MCF7 breast): > 100 µM | TGI (BT-549 breast): > 100 µM | TGI (NCI-H226 lung): > 100 µM | TGI (UO-31 renal): > 100 µM | TGI (CAKI-1 renal): > 100 µM | TGI (SNB-75 CNS): > 100 µM | TGI (A549 NSCLC): > 100 µM | TGI (HOP-62 NSCLC): > 100 µM | TGI (786-0 renal): > 100 µM | TGI (NCI-H522 lung): > 100 µM | TGI (UACC-62 melanoma): > 100 µM | TGI (T-47D breast): > 100 µM | TGI (K-562 leukemia): > 100 µM | TGI (SK-OV-3 ovarian): > 100 µM | TGI (IGROV1 ovarian): > 100 µM | TGI (SK-MEL-28 melanoma): > 100 µM | TGI (HCT-116 colon): > 100 µM | TGI (MDA-MB-231 breast): > 100 µM | TGI (UACC-257 melanoma): > 100 µM | TGI (SNB-19 CNS): > 100 µM

O=S(=O)(/N=C(\NO)Nc1ccc(Cl)cc1)c1ccc(S(=O)(=O)c2ccccc2)s1
TGI (HS 578T breast): 96.9 µM | TGI (TK-10 renal): 66.3 µM | TGI (RPMI-8226 leukemia): 35.8 µM | TGI (SF-539 CNS): 63.7 µM | TGI (EKVX NSCLC): 51.5 µM | TGI (NCI-H460 lung): 29.1 µM | TGI (MDA-MB-435): 37.3 µM | TGI (OVCAR-4 ovarian): 93.8 µM | TGI (SF-268 CNS): 90.7 µM | TGI (SK-MEL-5 melanoma): 24.5 µM | TGI (SW-620 colon): > 100 µM | TGI (HT29 colon): 57.7 µM | TGI (HOP-92 NSCLC): 31.3 µM | TGI (CCRF-CEM leukemia): 51.6 µM | TGI (OVCAR-5 ovarian): 63.7 µM | TGI (HCT-15 colon): > 100 µM | TGI (DU-145 prostate): 46 µM | TGI (OVCAR-8 ovarian): 89.6 µM | TGI (LOX IMVI melanoma): 29.3 µM | TGI (PC-3 prostate): > 100 µM | TGI (HCC-2998 colon): 29.7 µM | TGI (U251 CNS): 60.3 µM | TGI (HL-60(TB) leukemia): 50.6 µM | TGI (KM12 colon): 60.4 µM | TGI (M14 melanoma): 37.4 µM | TGI (MALME-3M melanoma): 41.9 µM | TGI (SN12C renal): 39.9 µM | TGI (SK-MEL-2 melanoma): 37.4 µM | TGI (SF-295 CNS): > 100 µM | TGI (NCI-H23 lung): 52.1 µM | TGI (COLO 205 colon): 34.6 µM | TGI (MOLT-4 leukemia): 35.9 µM | TGI (NCI/ADR-RES ovarian): > 100 µM | TGI (ACHN renal): 89.3 µM | TGI (RXF 393 renal): 87.7 µM | TGI (MCF7 breast): > 100 µM | TGI (BT-549 breast): 44.7 µM | TGI (A498 renal): 41.8 µM | TGI (NCI-H226 lung): 52.1 µM | TGI (UO-31 renal): 53.8 µM | TGI (CAKI-1 renal): 91.4 µM | TGI (A549 NSCLC): > 100 µM | TGI (HOP-62 NSCLC): 82.8 µM | TGI (786-0 renal): > 100 µM | TGI (NCI-H522 lung): 37.7 µM | TGI (UACC-62 melanoma): 33.7 µM | TGI (T-47D breast): 96.3 µM | TGI (K-562 leukemia): 40.3 µM | TGI (IGROV1 ovarian): 39.8 µM | TGI (OVCAR-3 ovarian): 55.9 µM | TGI (SK-MEL-28 melanoma): 40.7 µM | TGI (HCT-116 colon): 30.4 µM | TGI (MDA-MB-231 breast): 86.2 µM | TGI (UACC-257 melanoma): 41 µM | TGI (SNB-19 CNS): > 100 µM
